Experiments:
HCMV (strain AD169) = experiment: HCMV ELISA antiviral assay (viral antigen); type: cell-based, human cytomegalovirus; conditions: Human betaherpesvirus 5, Fibroblast; HCMV AD169 in human foreskin fibroblasts; value before the slash; unit inferred; read-out: Antiviral Activity Elisa, first value (EC50)
Excerpt: These complimentary assays tested the ability of a compound to inhibit the production of new virus and the toxicity of the compound to she host cells. It was important that both assays be performed simultaneously in order to compare the results directly since, toxicity may indirectly reduce viral yield.
Viral yield was estimated by measuring the amount of a viral antigen produced 4 days post infection with a monoclonal antibody to an abundant “immediate early” viral protein. An enzyme-linked (horseradish peroxidase) secondary antibody specific to the primary (mouse) antibody was urged to measure the amount of viral antigen. Test compounds were diluted to 2-times the desired final concentration in DMEM+5% FBS. One hundred microliters of this solution was placed in each well of a 96-well plate. This was performed once for the antiviral 96-well plate and again for a cytotoxicity plate. Two controls were also included for both plates; a no drug control and a no virus control. Ganciclovir was routinely tested in antiviral and cytotoxicity plates as a reference standard because it has known antiviral activity for HCMV. All cells were prepared by harvesting human foreskin fibroblasts, with trypsin and re-suspending at a concentration of 5×10^5 cells per ml in DMEM. Infected cells were prepared by infecting these with HCMV (strain AD169) at a multiplicity of infection=0.2. One hundred microliters of uninfected cells (5×10^4 cells) were added to the appropriate wells of the cytotoxicity plate. In a similar manner 100 μl of infected cells (5×10^4 cells) were added to the appropriate wells of the antiviral plate. Additionally, uninfected cells not treated with test compound were included as controls on the antiviral plate. Plates were incubated for 96 hours at 37° C. in 5% CO2 atmosphere and processed to measure the amount of viral antigen and toxicity.
The following was performed on the antiviral plate only. Media was removed and cells were fixed with 1:1 acetone:methanol for 15 minutes at −20° C. Fixative was removed and cells were washed once with PBS containing 0.05% Tween20. In order to block nonspecific binding of antibodies, each well was incubated with PBS containing 3% (w/v) bovine serum albumin (BSA) for 1 hour at 22° C. The blocking solution was removed and the cells were washed once with PBS containing 0.05% Tween20 before incubating with 1:100 dilution of primary antibody in PBS containing 3% BSA for 2 hours at 22° C. The primary antibody was a monoclonal antibody (mouse source) specific to the immediate early nuclear antigen of HCMV and was commercially available (Dupont). The 1° antibody solution was removed and the plate was rinsed 5 times with PBS containing 1% (v/v) Triton X-100 (PBST) before incubating with secondary antibody diluted 1:1000 in PBS containing 3% BSA for 2 hours at 22° C. The secondary antibody (goat source) recognized the murine-specific determinants of the 1° antibody and was covalently linked to horseradish peroxidase (Sigma). The plate was rinsed 5 times with PBST and once with deionized water before adding 100 μl TMB substrate solution and incubating 30 minutes at 22° C. The reaction was stopped by adding 100 μL of phosphoric acid and the OD at 450 nm recorded. TMB (3,3′,5,5′ tetramethylbenzidine) was the substrate for the horseradish peroxidase linked to the 2° antibody. It was made from a commercially available kit (Kirkegaard & Perry Laboratories, Inc.). Antiviral activity was calculated by comparing the amount of viral antigen produced in drug treated wells with that produced in wells absent of drug.

[1] = biological target: HCMV protease (assemblin) (Human cytomegalovirus, UniProt P16753); experiment: Enzymatic assay for HCMV protease (assemblin) inhibitors; type: biochemical
Chain of HCMV protease (assemblin) (P16753 1-256): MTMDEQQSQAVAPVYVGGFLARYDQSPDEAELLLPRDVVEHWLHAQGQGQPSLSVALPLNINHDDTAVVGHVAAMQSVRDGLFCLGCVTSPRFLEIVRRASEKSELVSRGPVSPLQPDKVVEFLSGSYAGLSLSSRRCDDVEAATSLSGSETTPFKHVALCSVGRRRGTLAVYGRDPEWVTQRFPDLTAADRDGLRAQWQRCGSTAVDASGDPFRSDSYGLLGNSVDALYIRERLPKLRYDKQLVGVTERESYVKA

[2] = tested on: HCMV engineered virus RC256; experiment: microbe, parasite or virus in culture; type: cell-based, human cytomegalovirus; conditions: Human betaherpesvirus 5, Fibroblast, read-out: Antiviral Activity RC256, first value (EC50)
[3] = biological target: T1, Human leukocyte elastase (HLE) (Homo sapiens, UniProt P08246); experiment: Human leukocyte elastase assay; type: biochemical
T1 construct: gift of R. Senior, Washington University
T1 sequence (P08246 30-267): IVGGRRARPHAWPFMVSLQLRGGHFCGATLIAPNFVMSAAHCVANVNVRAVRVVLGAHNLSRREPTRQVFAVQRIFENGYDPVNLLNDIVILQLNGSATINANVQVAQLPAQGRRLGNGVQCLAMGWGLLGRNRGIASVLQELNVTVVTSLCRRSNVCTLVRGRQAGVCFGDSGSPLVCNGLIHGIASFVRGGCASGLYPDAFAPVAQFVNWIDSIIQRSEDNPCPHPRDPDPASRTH
Method in brief: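 HLE in 0.2 M Tris, pH 8.0, was preincubated 30 minutes at ambient temperature with compound in DMSO. The reaction was started with methoxysuccinyl-Ala-Ala-Pro-Val-p-nitroanilide (2.5 mM added solution), and absorbance increase at 405 nm was monitored for 10 minutes.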

[4] = @ 10 (concentration unit not given)
[5] = @ 1 (concentration unit not given)

| Structure (SMILES) | EC50 [2] | HLE, % @ concentration [3, 4] | further results |
| --- | --- | --- | --- |
| COC(=O)[C@H](C)Nc1nc2cccc(C)c2c(=O)o1 [Example 1b, N-(5-Methyl-4-oxo-4H-3,1-benzoxazin-2-yl)-L-alanine, methyl ester] | – | – | EC50 (HCMV (strain AD169)): 72 µM |
| COc1ccc(C[C@H](Nc2nc3ccc(NC(=O)OCc4ccccc4)c(C)c3c(=O)o2)C(=O)N(C)Cc2ccccc2)cc1 [Example 11t, Phenylmethyl[2-[[1S-[(4-methoxyphenyl)methyl]-2-[methyl(phenylmethyl)amino]-2-oxoethyl]amino]-5-methyl-4H-3,1-benzoxazin-6-yl]carbamate] | 35 µM | – | Assemblin Protease, % @ concentration [1, 4]: 38% @ 10 |
| CCN(Cc1ccccc1)C(=O)[C@H](Cc1ccc(OC)cc1)Nc1nc2ccc(CNC(=O)Oc3ccccc3)c(C)c2c(=O)o1 [Example 9q, Phenyl[[2-[[2-[ethyl(phenylmethyl)amino-1S-,(4-methoxyphenyl)methyl]-2-oxoethyl]amino]-5-methyl-4-oxo-3,1-benzoxazin-6-yl]methyl]carbamate] | 18 µM | – | IC50 [1]: 1 µM; HLE, % @ concentration ([3]; @ 5 (concentration unit not given)): 48% @ 5 |
| COc1ccc(C[C@H](Nc2nc3ccc(NC(=O)OCC(C)C)c(C)c3c(=O)o2)C(=O)N(C)Cc2ccccc2)cc1 [Example 11s, 2-Methylpropyl[2-[[1S-[(4-methoxyphenyl)methyl]-2-[methyl(phenylmethyl)amino]-2-oxoethyl]amino]-5-methyl-4H-3,1-benzoxazin-6-yl]carbamate] | 17 µM | – | Assemblin Protease, % @ concentration [1, 4]: 58% @ 10 |
| COc1ccc(C[C@H](Nc2nc3ccc(CNC(=O)OC(C)(C)C)c(C)c3c(=O)o2)C(=O)N(C)c2ccc(Cl)cc2)cc1 [Example 7r, 1,1-Dimethylethyl[[2-[[2-[(4-chlorophenyl)methylamino]-1S-[(4-methoxyphenyl)methyl]-2-oxoethyl]amino]-5-methyl-4-oxo-4H-3,1-benzoxazin-6-yl]methyl]carbamate] | 7 µM | – | Assemblin Protease, % @ concentration [1, 5]: 52% @ 1; HLE, % @ concentration [3, 5]: 44% @ 1 |
| COc1ccc(C[C@H](Nc2nc3ccc(CNC(=O)Oc4ccccc4)c(C)c3c(=O)o2)C(=O)N(C)Cc2ccccc2)cc1 [Example 9j, Phenyl[[2-[[1S-[(4-methoxyphenyl)methyl]-2-[methyl(phenylmethyl)amino]-2-oxcethyl]amino]-5-methyl-4-oxo-4H-3,1-benzoxazin-6-yl]methyl]carbamate] | 20 µM | – | IC50 [1]: 0.4 µM |
| Cc1c(CNS(=O)(=O)c2ccccc2)ccc2nc(N[C@@H](Cc3ccccc3)C(=O)N(C)Cc3ccccc3)oc(=O)c12 [Example 13e, N-Methyl-αS-[[5-methyl-4-oxo-6-[[(phenylsulfonyl)amino]methyl]-4H-3,1-benzoxazin-2-yl]amino]-N-(phenylmethyl)benzenepropanamide] | 14 µM | – | Assemblin Protease, % @ concentration ([1]; @ 100 (concentration unit not given)): 11% @ 100 |
| Cc1c(CNC(=O)OC(C)(C)C)ccc2nc(N[C@@H](Cc3ccc(Cl)cc3)C(=O)N(C)Cc3ccccc3)oc(=O)c12 [Example 7p, 1,1-Dimethylethyl[[2-[[1S-[(4-chlorophenyl)methyl]-2-[methyl(phenylmethyl)amino]-2-oxoethyl]amino]-5-methyl-4-oxo-4H-3,1-benzoxazin-6-yl]methyl]carbamate] | 20 µM | – | HLE, % @ concentration [3, 5]: 42% @ 1 |
| CCOC(=O)NCc1cc(Br)c2nc(N[C@@H](Cc3ccccc3)C(=O)N(C)Cc3ccccc3)oc(=O)c2c1C [Example 15b, Ethyl[[8-bromo-5-methyl-2-[[2-[methyl(phenylmethyl)amino]-2-oxo-1S-(phenylmethyl)ethyl]amino]-4-oxo-4H-3,1-benzoxazin-6-yl]methyl]carbamate] | 16 µM | – | Assemblin Protease, % @ concentration [1, 4]: 39% @ 10 |
| Cc1ccc(S(=O)(=O)NCc2cc(Br)c3nc(N[C@@H](Cc4ccccc4)C(=O)N(C)Cc4ccccc4)oc(=O)c3c2C)cc1 [Example 13d, αS-[[8-Bromo-5-methyl-6-[[[(4-methylphenyl)sulfonyl]amino]methyl]-4-oxo-4H-3,1-benzoxazin-2-yl]amino]-N-methyl-N-(phenylmethyl)benzenepropanamide] | 8 µM | 87% @ 10 | – |
| COc1ccc(C[C@H](Nc2nc3ccc(NC(=O)OC(C)(C)C)c(C)c3c(=O)o2)C(=O)N(C)Cc2ccccc2)cc1 [Example 6dd, 1,1-Dimethylethyl[2-[[1S-[(4-methoxyphenyl)methyl]-2-[methyl(phenylmethyl)amino]-2-oxoethyl]amino]-5-methyl-4-oxo-4H-3,1-benzoxazin-6-yl]carbamate] | 18 µM | 42% @ 10 | – |
| COc1ccc(C[C@H](Nc2nc3ccc(CNC(=O)OC(C)(C)C)c(C)c3c(=O)o2)C(=O)N(C)CCc2ccccc2)cc1 [Example 7q, 1,1-Dimethylethyl[[2-[[1S-[(4-methoxyphenyl)methyl]-2-[methyl(2-phenylethyl)amino]-2-oxoethyl]amino]-5-methyl-4-oxo-4H-3,1-benzoxazin-6-yl]methyl]carbamate] | 22 µM | – | HLE, % @ concentration [3, 5]: 39% @ 1 |
| CCOC(=O)NCc1ccc2nc(N[C@@H](Cc3ccc(OC)cc3)C(=O)N(C)Cc3ccccc3)oc(=O)c2c1C [Example 9g, Ethyl[[2-[[1S-[(4-methoxyphenyl)methyl]-2-[methyl(phenylmethyl)amino]-2-oxoethyl]amino]-5-methyl-4-oxo-4H-3,1-benzoxazin-6-yl]methyl]carbamate] | 15 µM | 27% @ 10 | – |
| COc1ccc(C[C@H](Nc2nc3ccc(NS(=O)(=O)c4ccccc4)c(C)c3c(=O)o2)C(=O)N(C)Cc2ccccc2)cc1 [Example 13c, 4-Methoxy-N-methyl-αS-[[5-methyl-4-oxo-6-[(phenylsulfonyl)amino]-4H-3,1-benzoxazin-2-yl]amino]-N-(phenylmethyl)benzenepropanamide] | 10 µM | 39% @ 10 | – |
| Cc1c(CNC(=O)OC(C)(C)C)ccc2nc(N[C@@H](Cc3ccccc3)C(=O)N(C)Cc3ccccc3)oc(=O)c12 [Example 7j, 1,1-Dimethylethyl[[5-methyl-2-[[2-[methyl(phenylmethyl)amino]-2-oxo-1S-(phenylmethyl)ethyl]amino]-4-oxo-4H-3,1-benzoxazin-6-yl]methyl]carbamate] | 14 µM | 31% @ 10 | – |
| Cc1c(CNC(=O)Oc2ccccc2)ccc2nc(N[C@@H](Cc3ccccc3)C(=O)N(C)Cc3ccccc3)oc(=O)c12 [Example 9ee, Phenyl[[5-methyl-2-[[2-[methyl(phenylmethyl)amino]-2-oxo-1S-(phenylmethyl)ethyl]amino]-4-oxo-4H-3,1-benzoxazin-6-yl]methyl]carbamate] | 15 µM | 47% @ 10 | IC50 [1]: 0.6 µM |
| CCN(Cc1ccccc1)C(=O)[C@H](Cc1ccccc1)Nc1nc2c(Br)cc(CNC(=O)CN3CCOCC3)c(C)c2c(=O)o1 [Example 15g, N-[[8-Bromo-2-[[2-[ethyl(phenylmethyl)amino]-2-oxo-1S-(phenylmethyl)ethyl]amino]-5-methyl-4-oxo-4H-3,1-benzoxazin-6-yl]methyl]morpholine-4-acetamide] | 16 µM | – | HLE, % @ concentration [3, 5]: 22% @ 1 |

— US6683077B2, “2-Amino-benzoxazinones for the treatment of viral infections” (G.D. Searle & Co., priority 1996, dated 2004)
